Reference: patent publication US4839385A, “Use of manoalide and its derivatives for modifying calcium homeostasis” (The Regents of the University of California, priority 1987, dated 1989)

What was measured:
Type in all cases: cell-based
[1] = system: Mouse spleen cells; experiment: Effect of manoalide on Con A-induced rise in intracellular calcium in mouse spleen cells (FURA-2)
Description: When 40 μg/ml Con A was added to single cell suspensions of mouse spleen cells were prepared by the standard methods, a rapid rise in intracellular calcium was observed. This calcium signal is characteristic of calcium moving from outside the cell to inside through a plasma membrane channel. If calcium is removed from the external medium, the rise in intracellular calcium is completely absent.
(§1) The concentration of free intracellular calcium was determined by loading the cells with a calcium sensitive florescent dye, FURA-2® (Grynkiewicz, G., Poenig, M. and Tsien, R. J., Biol. Chem 260: 3440-3450, 1985). Fluorescence measurements and calibration curves were done the same as for Quin-2, Pandol, S., Schoeffield, M., Sachs, G. and Muallem, S. (J. Biol. Chem 10081-10086, 1985).
(§2) Once the cells were loaded, aliquots (10^6 cells/ml) were placed in cuvettes and the baseline intracellular calcium concentration determined.
(§3) Manoalide was dissolved in polyethylene glycol 400 or dimethylsulfoxide and added as indicated before the Con A was added to the cuvette.
(§4) *All cells were preincubated at 37° C. for 5 minutes before
(§5) addition of Con A (40 μg/ml).

[2] = system: Human lymphocytes; experiment: Effect of manoalide on Con A-induced calcium rise in human lymphocytes (FURA-2); conditions: Lymphocyte, 5 min preincubation 37° C., Con A 40 μg/ml
Description: as §1, §2, §3
Similar results were obtained with human lymphocytes isolated and prepared according to the method of Muallem, et al.
as §4, §5

[3] = system: Parietal cells; experiment: Acid secretion in parietal cells after carbachol or forskolin stimulation
[4] = system: Peptic cells; experiment: CCK or carbachol stimulated increase in calcium (release from intracellular stores) in peptic cells
Description: (§6) Gastric glands contain both peptic cells (release of calcium from intracellular stores) and parietal cells (plasma membrane calcium channel). Gastric cells were isolated as described by Muallem, et. al. (Amer. J. Physiol. 248-G216-G228, 1985). Addition of CCK or carbachol to a final concentration of […] and 0.1 mM respectively were used to activate these cells. Muallem et al. (J. Biol. Chem.: In Press, 1986) have shown that these hormones stimulate these cells and result in an increase in free intracellular cytosolic calcium.
(§7) With peptic cells, the hormones CCK or carbachol cause release of calcium from intracellular stores. […] The calcium signal in these cells is different from that observed in the conconavalin stimulated release of calcium from spleen cells.
The calcium transient observed is characteristic of the release of calcium from intracellular stores. If calcium is removed from the extracellular medium it has no effect on the calcium signal.

[5] = system: Peptic cells; experiment: Pepsin secretion in peptic cells after CCK, carbachol or forskolin stimulation
Description: as §6, §7
To examine the correlation between secretion and the calcium signal, the effects of manoalide on pepsin secretion were quantitated (Table 3).

[6] = system: A431 cells; experiment: EGF-induced calcium signal in A431 human epidermoid carcinoma cells; conditions: 1.5 μM; 5 minutes; EGF 5 μg/ml
Description: The A431 cell line, human epidermoid carcinoma cell, can be activated with 5 μg/ml epidermal growth factor (EGF). Sawyer, S. T. and Cohen, S (Biochemistry 20, 6280-6286, 1981) have shown that EGF enhances calcium uptake in these cells.
A431 Cells were grown in 150 ml Falcon flasks containing Dulbecco's modified Eagle's medium (Gibco) supplemented with 10% fetal calf serum (Irvine Scientific) and gentamycin.

[7] = system: EL-4; experiment: Inhibition of growth of tumor cell line EL-4
[8] = system: plasma membrane calcium channels; experiment: Calcium entry through plasma membrane calcium channels, gastric glands; conditions: 1 μM and less
Description: (§8) The effect of manoalide on intracellular calcium levels was investigated through experiments using gastric glands. These glands contain two types of cells that use either plasma membrane channels or release from intracellular stores to increase cytosolic calcium.

[9] = system: intracellular stores; experiment: Calcium release from intracellular stores, gastric glands; conditions: 30-50 μM
Description: as §8

SMILES: CC1=C(CC/C(C)=C/CCC2=CCC(C3=CC(=O)OC3O)OC2O)C(C)(C)CCC1 (centres unmarked) [manoalide]
- inhibition of the rise in intracellular calcium ([1]; 0.5 μM, 5 min preincubation 37° C., 40 μg/ml Con A): complete inhibition
- nature of the inhibition of the calcium signal ([1]; Con A 40 μg/ml): time dependent and irreversible
- inhibition at 0.01 µM ([1]; Mus musculus, 0.01 μM, 5 min preincubation 37° C., Con A 40 μg/ml): 0%
- inhibition at 0.1 µM ([1]; Mus musculus, 0.1 μM, 5 min preincubation 37° C., Con A 40 μg/ml): 30%
- inhibition at 0.3 µM ([1]; Mus musculus, 0.3 μM, 5 min preincubation 37° C., Con A 40 μg/ml): 70%
- inhibition at 1 µM ([1]; Mus musculus, 1.0 μM, 5 min preincubation 37° C., Con A 40 μg/ml): 100%
- inhibition at 0.05 µM ([2]; 0.05 μM): 0%
- inhibition at 0.1 µM ([2]; 0.1 μM): 15%
- inhibition at 0.25 µM ([2]; 0.25 μM): 30%
- inhibition at 0.5 µM ([2]; 0.5 μM): 65%
- inhibition at 1 µM ([2]; 1.0 μM): 100%
- activity at 0.1 µM ([3]; Carbachol Stimulation): 50%
- activity at 0.1 µM ([3]; Forskolin): 100%
- activity at 0.5 µM ([3]; Carbachol Stimulation): 10%
- activity at 0.5 µM ([3]; Forskolin): 100%
- activity at 5 µM ([3]; Carbachol Stimulation): 0%
- activity at 5 µM ([3]; Forskolin): 100%
- activity at 50 µM ([3]; Carbachol Stimulation): 0%
- activity at 50 µM ([3]; Forskolin): 100%
- acid secretion in parietal cells ([3]; preincubation with 0.1-5.0 μM): blocked acid secretion
- inhibition of CCK or carbachol stimulated increase in calcium ([4]; 5 μM): no inhibition
- inhibition of the calcium signal ([4]; 50 μM or higher): showed inhibition of the calcium signal
- nature of the inhibition of the calcium signal ([4]; 50 μM or higher): irreversible and time dependent
- inhibition of the calcium signal ([4]; 60 μM): significant inhibition of the calcium signal
- activity at 0.1 µM ([5]; CCK Stimulation (N = 5)): 100%
- activity at 0.1 µM ([5]; Carbachol (2)): 100%
- activity at 0.1 µM ([5]; Forskolin (2)): 100%
- activity at 0.5 µM ([5]; CCK Stimulation (N = 5)): 105%
- activity at 0.5 µM ([5]; Carbachol (2)): 110%
- activity at 0.5 µM ([5]; Forskolin (2)): 100%
- activity at 5 µM ([5]; CCK Stimulation (N = 5)): 115%
- activity at 5 µM ([5]; Carbachol (2)): 110%
- activity at 5 µM ([5]; Forskolin (2)): 100%
- activity at 50 µM ([5]; CCK Stimulation (N = 5)): 60%
- activity at 50 µM ([5]; Carbachol (2)): 40%
- activity at 50 µM ([5]; Forskolin (2)): 100%
- minimal effective concentration ([5]; peptic cells, read-out: concentration below which no inhibition of the biological effect was observed): > 50 µM
- effect on the Ca signal [6]: complete abolition
- tumor cell growth inhibition [7]: inhibited from growing
- calcium entering through the plasma membrane calcium channels [8]: inhibits calcium from entering
- calcium release from intracellular stores [9]: blocks calcium release
